In patent publication US7342122B2, “Bisphosphonate complexes” (priority 2003, dated 2008):
Blank lines part the entries; values can stand above or below the compound they belong to.

Experiments:
[1] = system: SF-295; assay: Cell growth inhibition, brain cancer cell line SF-295; format: cell-based; details: SF-295, brain cancer cell line
Procedure: (§1) KB cells were purchased from Human Science Research Resource Bank (Osaka, Japan). The cells were cultured in Earle's MEM (GIBCO BRL) containing 10% FBS (Bio Whittaker) at 37° C. under 5% CO2. After 24 hours the test compounds were added to the cells at the indicated concentrations. 72 hours later the cells were stained with tripan blue and counted manually. IC50 is calculated as the concentration (aqueous solution) of complex required to inhibit growth of cells by 50%.
(§2) In a similar fashion a representative number of examples of compounds of the invention were tested for their ability to inhibit the growth/proliferation of cell types representing a number of different cancers. The results are provided in Tables 4-13, below, which provide the Inhibition Constants (IC50, μM) for each compound across various cell lines.

[2] = system: DMS114; assay: Cell growth inhibition, lung cancer cell line DMS114; format: cell-based
Procedure: as §1, §2

[3] = system: MKN28; assay: Cell growth inhibition, human stomach cancer MKN28; format: cell-based
Procedure: as §1, §2

[4] = system: MKN74; assay: Cell growth inhibition, human stomach cancer MKN74; format: cell-based
Procedure: as §1, §2

[5] = system: HBC-5; assay: Cell growth inhibition, breast cancer cell line HBC-5; format: cell-based; details: HBC-5, breast cancer cell line
Procedure: as §1, §2

[6] = system: NCI-H23; assay: Cell growth inhibition, lung cancer cell line NCI-H23; format: cell-based
Procedure: as §1, §2

[7] = system: A549; assay: Cell growth inhibition, lung cancer cell line A549; format: cell-based
Procedure: as §1, §2

[8] = system: OVCAR-5; assay: Cell growth inhibition, ovarian cancer cell line OVCAR-5; format: cell-based; details: OVCAR-5, ovarian cancer cell line
Procedure: as §1, §2

[9] = system: HCT-116; assay: Cell growth inhibition, colon cancer cell line HCT-116; format: cell-based; details: HCT-116, colon cancer cell line
Procedure: as §1, §2

[10] = system: RXF-631L; assay: Cell growth inhibition, renal cancer RXF-631L; format: cell-based
Procedure: as §1, §2

[11] = system: KM-12; assay: Cell growth inhibition, colon cancer cell line KM-12; format: cell-based; details: KM-12, colon cancer cell line
Procedure: as §1, §2

[12] = system: HCT-15; assay: Cell growth inhibition, colon cancer cell line HCT-15; format: cell-based; details: HCT-15, colon cancer cell line
Procedure: as §1, §2

[13] = system: NCI-H460; assay: Cell growth inhibition, lung cancer cell line NCI-H460; format: cell-based
Procedure: as §1, §2

[14] = system: OVCAR-4; assay: Cell growth inhibition, ovarian cancer cell line OVCAR-4; format: cell-based; details: OVCAR-4, ovarian cancer cell line
Procedure: as §1, §2

[15] = system: SF-539; assay: Cell growth inhibition, brain cancer cell line SF-539; format: cell-based; details: SF-539, brain cancer cell line
Procedure: as §1, §2

[16] = system: HCC2998; assay: Cell growth inhibition, colon cancer cell line HCC2998; format: cell-based
Procedure: as §1, §2

[17] = system: SNB-75; assay: Cell growth inhibition, brain cancer cell line SNB-75; format: cell-based; details: SNB-75, brain cancer cell line
Procedure: as §1, §2

[18] = system: HT-29; assay: Cell growth inhibition, colon cancer cell line HT-29; format: cell-based; details: HT-29, colon cancer cell line
Procedure: as §1, §2

[19] = system: MCF-7; assay: Cell growth inhibition, breast cancer cell line MCF-7; format: cell-based; details: MCF-7, breast cancer cell line
Procedure: as §1, §2

[20] = system: OVCAR-3; assay: Cell growth inhibition, ovarian cancer cell line OVCAR-3; format: cell-based; details: OVCAR-3, ovarian cancer cell line
Procedure: as §1, §2

[21] = system: NCI-H522; assay: Cell growth inhibition, lung cancer cell line NCI-H522; format: cell-based
Procedure: as §1, §2

[22] = system: NCI-H226; assay: Cell growth inhibition, lung cancer cell line NCI-H226; format: cell-based
Procedure: as §1, §2

[23] = system: LOX-IMVI; assay: Cell growth inhibition, melanoma cell line LOX-IMVI; format: cell-based
Procedure: as §1, §2

[24] = system: OVCAR-8; assay: Cell growth inhibition, ovarian cancer cell line OVCAR-8; format: cell-based; details: OVCAR-8, ovarian cancer cell line
Procedure: as §1, §2

[25] = system: MKN45; assay: Cell growth inhibition, human stomach cancer MKN45; format: cell-based
Procedure: as §1, §2

[26] = system: DMS273; assay: Cell growth inhibition, lung cancer cell line DMS273; format: cell-based
Procedure: as §1, §2

[27] = system: PC-3; assay: Cell growth inhibition, prostatic cancer PC-3; format: cell-based; details: PC-3, prostatic cancer
Procedure: as §1, §2

[28] = system: SNB-78; assay: Cell growth inhibition, brain cancer cell line SNB-78; format: cell-based; details: SNB-78, brain cancer cell line
Procedure: as §1, §2

[29] = system: MKN1; assay: Cell growth inhibition, human stomach cancer MKN1; format: cell-based
Procedure: as §1, §2

[30] = system: KB cells; assay: In vitro assay, cell growth inhibition (KB cells); format: cell-based; details: 72 hours
Procedure: as §1

[31] = system: U251; assay: Cell growth inhibition, brain cancer cell line U251; format: cell-based
Procedure: as §1, §2

[32] = system: BSY-1; assay: Cell growth inhibition, breast cancer cell line BSY-1; format: cell-based; details: BSY-1, breast cancer cell line
Procedure: as §1, §2

[33] = system: all cell types (cancer cell lines of Tables 4-12); assay: Cell growth inhibition, mean over all cell types of the panel; format: cell-based; details: mean over all cell lines of Tables 4-12
Procedure: as §1, §2

[34] = system: St-4; assay: Cell growth inhibition, human stomach cancer St-4; format: cell-based; details: St-4, human stomach cancer
Procedure: as §1, §2

[35] = system: SK-OV-3; assay: Cell growth inhibition, ovarian cancer cell line SK-OV-3; format: cell-based; details: SK-OV-3, ovarian cancer cell line
Procedure: as §1, §2

[36] = system: ACHN; assay: Cell growth inhibition, renal cancer ACHN; format: cell-based
Procedure: as §1, §2

[37] = system: MDA-MB-231; assay: Cell growth inhibition, breast cancer cell line MDA-MB-231; format: cell-based; details: MDA-MB-231, breast cancer cell line
Procedure: as §1, §2

[38] = system: MKN7; assay: Cell growth inhibition, human stomach cancer MKN7; format: cell-based
Procedure: as §1, §2

[39] = system: HBC-4; assay: Cell growth inhibition, breast cancer cell line HBC-4; format: cell-based; details: HBC-4, breast cancer cell line
Procedure: as §1, §2

[40] = system: DU-145; assay: Cell growth inhibition, prostatic cancer DU-145; format: cell-based, human; details: DU-145, prostatic cancer
Procedure: as §1, §2

[41] = system: SF-268; assay: Cell growth inhibition, brain cancer cell line SF-268; format: cell-based; details: SF-268, brain cancer cell line
Procedure: as §1, §2

log10 IC50 (M) [1]: -5.31
log10 IC50 (M) [2]: -5.28
log10 IC50 (M) [3]: -4.86
log10 IC50 (M) [4]: -5.33
log10 IC50 (M) [5]: -4.98
log10 IC50 (M) [6]: -4.88
log10 IC50 (M) [7]: -4.88
log10 IC50 (M) [8]: -5.3
log10 IC50 (M) [9]: -5.38
log10 IC50 (M) [10]: -5.43
log10 IC50 (M) [11]: -5.22
log10 IC50 (M) [12]: -5.14
log10 IC50 (M) [13]: -5.86
log10 IC50 (M) [14]: -5.06
log10 IC50 (M) [15]: -5.36
log10 IC50 (M) [16]: -5.54
log10 IC50 (M) [17]: -5.16
log10 IC50 (M) [18]: -5.25
log10 IC50 (M) [19]: -5.28
log10 IC50 (M) [20]: -4.95
log10 IC50 (M) [21]: -5.22
log10 IC50 (M) [22]: -5.41
log10 IC50 (M) [23]: -5.15
log10 IC50 (M) [24]: -5.13
log10 IC50 (M) [25]: -5.08
log10 IC50 (M) [26]: -5.24
log10 IC50 (M) [27]: -4.9
log10 IC50 (M) [28]: -4.67
log10 IC50 (M) [29]: -5.28
IC50 ([30]; concentration to inhibit growth of cells by 50%): 36 µM
log10 IC50 (M) [31]: -5
log10 IC50 (M) [32]: -5.34
log10 IC50 (M) [33]: -5.18
log10 IC50 (M) [34]: -5.12
log10 IC50 (M) [35]: -5.1
log10 IC50 (M) [36]: -5.22
log10 IC50 (M) [37]: -5.29
log10 IC50 (M) [38]: -5.04
log10 IC50 (M) [39]: -4.91
log10 IC50 (M) [40]: -5.1
log10 IC50 (M) [41]: -5.27
Compound: [Cl-].[Cl-].c1cc[n+]2c(c1)-c1cccc[n+]1[Pd-2]21[NH2+]CC[NH+]1Cc1c2ccccc2cc2ccccc12 [Example 5, [Pd(bpy)(Aten)]Cl2]
KB cells remaining/growth in percent (Table 2, untitled) ([30]; 1 μg/ml): 86.9%
KB cells remaining/growth in percent (Table 2, untitled) ([30]; 3 μg/mL): 81.4%
KB cells remaining/growth in percent (Table 2, untitled) ([30]; 10 μg/mL): 75.1%
KB cells remaining/growth in percent (Table 2, untitled) ([30]; 30 μg/mL): 44.7%
KB cells remaining/growth in percent (Table 2, untitled) ([30]; 100 μg/mL): 12.3%

Compound: Pt(dach)-IP6 [Example 10]
log10 IC50 (M) [1]: -4.67
log10 IC50 (M) [2]: -4.26
log10 IC50 (M) [3]: -4.19
log10 IC50 (M) [4]: -4.15
log10 IC50 (M) [5]: -5.4
log10 IC50 (M) [6]: -4.95
log10 IC50 (M) [7]: -5.21
log10 IC50 (M) [8]: -4.78
log10 IC50 (M) [9]: -5.33
log10 IC50 (M) [10]: -4.39
log10 IC50 (M) [11]: -4.23
log10 IC50 (M) [12]: -5.14
log10 IC50 (M) [13]: -5.19
log10 IC50 (M) [14]: -5.01
log10 IC50 (M) [15]: -5.14
log10 IC50 (M) [16]: -4.7
log10 IC50 (M) [17]: -4.86
log10 IC50 (M) [18]: -4.65
log10 IC50 (M) [19]: -5.32
log10 IC50 (M) [20]: -4.9
log10 IC50 (M) [21]: -5.17
log10 IC50 (M) [22]: -5.08
log10 IC50 (M) [23]: -5.31
log10 IC50 (M) [24]: -4.57
log10 IC50 (M) [25]: -6.21
log10 IC50 (M) [26]: -6.27
log10 IC50 (M) [27]: -4.46
log10 IC50 (M) [28]: -4.48
log10 IC50 (M) [29]: -4.89
log10 IC50 (M) [31]: -4.69
log10 IC50 (M) [32]: -4.56
log10 IC50 (M) [33]: -4.86
log10 IC50 (M) [34]: -4.3
log10 IC50 (M) [35]: -4.28
log10 IC50 (M) [36]: -5.21
log10 IC50 (M) [37]: -4.67
log10 IC50 (M) [38]: -4.17
log10 IC50 (M) [39]: -5.07
log10 IC50 (M) [40]: -5.03
log10 IC50 (M) [41]: -4.52

log10 IC50 (M) [1]: -5.22
log10 IC50 (M) [2]: -4.85
log10 IC50 (M) [3]: -4.52
log10 IC50 (M) [4]: -4.5
log10 IC50 (M) [5]: -5.57
log10 IC50 (M) [6]: -5.2
log10 IC50 (M) [7]: -4.79
log10 IC50 (M) [8]: -4.52
log10 IC50 (M) [9]: -4.58
log10 IC50 (M) [10]: -4.74
log10 IC50 (M) [11]: -4.43
log10 IC50 (M) [12]: -4.51
log10 IC50 (M) [13]: -5.22
log10 IC50 (M) [14]: -4.83
log10 IC50 (M) [15]: -5.17
log10 IC50 (M) [16]: -4.57
log10 IC50 (M) [17]: -4.93
log10 IC50 (M) [18]: -4.44
log10 IC50 (M) [19]: -4.77
log10 IC50 (M) [20]: -4.69
log10 IC50 (M) [21]: -5.16
log10 IC50 (M) [22]: -4.64
log10 IC50 (M) [23]: -4.85
log10 IC50 (M) [24]: -4.72
log10 IC50 (M) [25]: -4.91
log10 IC50 (M) [26]: -4.97
log10 IC50 (M) [27]: -4.45
log10 IC50 (M) [28]: -4.61
log10 IC50 (M) [29]: -5.18
log10 IC50 (M) [31]: -4.64
log10 IC50 (M) [32]: -5.2
log10 IC50 (M) [33]: -4.83
log10 IC50 (M) [34]: -4.61
log10 IC50 (M) [35]: -4.65
log10 IC50 (M) [36]: -5.37
log10 IC50 (M) [37]: -4.35
log10 IC50 (M) [38]: -4.76
log10 IC50 (M) [39]: -4.83
log10 IC50 (M) [40]: -5.29
log10 IC50 (M) [41]: -5.11
Compound: cis-Pt (NH3)2(Pyrophosphate) [Example 8]
